System: Proteasome
Assay: Concentration required for reversal inhibition of 20S-proteasome
Format: subcellular

| SMILES | IC50 |
| --- | --- |
| Cc1cccc(S(=O)(=O)N[C@]2(C(C)C)CCN([C@@H](CC3CCCCC3)C(=O)N[C@@H](CC(C)C)B(O)O)C2=O)c1 | 8 nM |
| CC[C@H](NC(=O)[C@H](CC1CCCCC1)N1CC[C@](NC(=O)OCc2ccccc2)(C(C)C)C1=O)B(O)O | 30 nM |
| CC[C@H](NC(=O)[C@H](CC1CCCCC1)N1CC[C@](NS(=O)(=O)c2cccc(C)c2)(C(C)C)C1=O)B(O)O | 30 nM |
| CC[C@H](NC(=O)[C@H](Cc1ccccc1)N1CC[C@](NC(=O)OCc2ccccc2)(C(C)C)C1=O)B(O)O | 30 nM |

Continued by falling IC50, values first:

| IC50 | SMILES |
| --- | --- |
| 1000 nM | CC[C@H](NC(=O)[C@H](C)N1CC[C@](NC(=O)OCc2ccccc2)(C(C)C)C1=O)B(O)O |
| 28 nM | Cc1cccc(S(=O)(=O)N[C@]2(C(C)C)CCN([C@@H](CC3CCCCC3)C(=O)N[C@H](B(O)O)C(C)C)C2=O)c1 |

From ChEMBL document CHEMBL1137836, “Identification of a potent and rapidly reversible inhibitor of the 20S-proteasome” (Bioorg Med Chem Lett, 2004)
